Results on 6 molecules are retold here after patent US12252472B1, “Barbituric acid derivatives, their preparation and use thereof as leukocyte transmigration inhibitors and for treating inflammatory diseases, autoimmune diseases and cancer” (BAR-ILAN UNIVERSITY, priority 2017, dated 2025).

In experiment [1] the test system is primary human monocytes on TNF-alpha-activated HUVECs. The experiment can be described thus: Shear flow assay: monocyte adhesion and transmigration on TNFα-activated HUVECs. The class given is cell-based. To be noted: for Level of Transmigration Blockage (%) / Monocyte adhesion / inhibition at 30 µM: 30 μM; for Level of Transmigration Blockage (%): monocytes on TNF-activated HUVECs under flow 0.05 Pa; for Monocyte adhesion: flow 0.05 Pa for 30 minutes; for inhibition at 30 µM: Table 2, read-out: monocyte-rolling inhibition. An excerpt: A flow assay that allows detailed analysis of individual leukocyte interactions with endothelial cells (ECs), described in Bradfield et al. (Bradfield et al., 2016, PloS One, July 21; 11(7); Bradfield et al., 2007, Blood. October 1; 110(7):2545-55) was used for evaluation of the biological effects of the compounds according to the invention. This method allows the determination of the possible effects of the compounds on three major phases in leukocyte migration: the capture of free non-bound leukocytes by endothelium, migration of leukocytes on the endothelium surface, and transendothelial migration (transmigration) of human leukocytes through the HUVECs layer. Post transmigrational events can also be monitored by tracking individual leukocytes. […] Human umbilical vein endothelial cells (HUVECs) were cultivated in the plastic channel of the flow chamber, and human leukocyte were flowed over them using a calibrated pump, allowing monocyte capture, adhesion and migration to be monitored.
Human umbilical vein endothelial cells (HUVEC) were isolated by collagenase treatment of umbilical veins as previously described (Wall, R. T., et al., Factors influencing endothelial cell proliferation in vitro. J Cell Physiol, 1978. 96(2): p. 203-13) and maintained in M199 containing 20% fetal calf serum (FCS), 15 μg/mL endothelial cell growth supplement (Upstate Biotechnology, Lake Placid, NY), 100 μg/mL heparin, 50 μM hydrocortisone, and 10 μg/mL vitamin C. Cells were cultured up to a maximum of passage 5.
Peripheral blood mononuclear cells (PBMCs) were first isolated from blood of healthy donors followed by monocyte purification using a monocyte isolation kit (Miltenyi Biotec, Bergisch Gladbach, Germany). Purity and activity of monocytes were controlled by flow cytometry by labelling with anti-CD14 and anti-CD62L. Only populations of 90% or more double positive cells were used.
(§1) Flow assays were conducted as described in a previous study (Bradfield, P. F., et al., JAM-C regulates unidirectional monocyte transendothelial migration in inflammation. Blood, 2007. 110(7): p. 2545-55). HUVECs were cultured at 1×10^5 cells/slide on Ibidi 6-chamber slides (80606; Ibidi) before treatment with TNFα (500 U/mL) for 6-10 hours. An individual chamber outlet was then attached to a calibrated pump (74 900; Cole Partner, Vernon Hills, IL) and flow was generated by perfusing wash buffer (M199 with 0.15% BSA) or a monocyte suspension (2.5×10^6 cells/mL) over the HUVEC monolayer. The flow rate was representative of shear rates in small venules (0.05 Pa). Observations made using phase-contrast microscopy (Model: Axiovert 100; Objective: 20×/0.3 NA air; Carl Zeiss) were recorded using a high-resolution camera (D70; Nikon, Zurich, Switzerland). Individual images were recorded every 30 seconds with Nikon capture software (v4.2) and compiled into movie sequences using Adobe Photoshop (CS6) and Image J (v1.5d), allowing analysis of individual monocytes over large areas. The tested compounds, e.g. compounds of the general Formula (I), were maintained at the specified concentration in all wash buffers throughout the course of the experiment. The compounds were preincubated separately on both HUVECs and monocytes 15 minutes prior to flow co-culture. HUVEC monolayers were washed for 10 minutes prior to a compound wash-in step to allow for this preincubation period. The monocyte suspension was then perfused over HUVECs for 4 minutes followed by 20 to 60 minutes with wash buffer. Time-lapse recording was started upon monocyte first-contact with the monolayer. Monocyte adhesion data are presented as the total number of monocytes per unit field. Transmigration events are presented as a percentage of total monocytes captured from flow per unit field. All experiments were carried out using quadruplicate fields and are presented as a mean value (±SEM).
A timeline is shown to represent the positioning and timing of an individual monocyte during movie analysis (marked ‘Timeline’). […]

Another experiment relates to B cells. As to the kind of experiment: B-lymphocyte adhesion and transmigration, MesenFlow assay. To be noted: 30 μg/ml. The class given is cell-based. The protocol: as §1, with “HUVEC monolayers were washed for 10 minutes prior to a compound wash-in step to allow for this preincubation period. The monocyte suspension was then perfused over HUVECs for 4 minutes followed by 20 to 60 minutes with wash buffer. Time-lapse recording was started upon monocyte first-contact with the monolayer. Monocyte adhesion data are presented as the total number of monocytes per unit field. Transmigration events are presented as a percentage of total monocytes captured from flow per unit field. All experiments were carried out using quadruplicate fields and are presented as a mean value (±SEM).” left out

On to `COC(=O)c1ccc(COc2cccc(C=C3C(=O)NC(=O)NC3=O)c2)cc1` [Formula 1, Methyl 4-((3-((2,4,6-trioxo-tetrahydropyrimidin-5(2H)-ylidene)methyl)phenoxy)methyl) benzoate], for which the “Level of Transmigration Blockage (%)” value in experiment [1] stood at 81%.

For “Tysabri®: an antibody against alpha 4 integrin, used as a positive control [reference compound]”, the “number of transmigrated B cells” value in the experiment with B cells was “no net effect”.

On to `COC(=O)c1ccc(COc2c(C)cc(C=C3C(=O)NC(=O)NC3=O)cc2C)cc1` [Formula 4, Methyl 4-((2,6-dimethyl-4-((2,4,6-trioxotetrahydro-pyrimidin-5(2H)ylidene)methyl)phenoxy)methyl) benzoate], for which, in experiment [1], the “Level of Transmigration Blockage (%)” value was determined as 75%.

A word on the inhibition: it is the relative decrease from the control value, in per cent. As for `COC(=O)c1cccc(COc2cccc(C=C3C(=O)NC(=O)NC3=O)c2)c1` [Formula 9, Methyl 3-((3-((2,4,6-trioxo-tetrahydropyrimidin-5(2H)-ylidene)methyl)phenoxy)methyl) benzoate], in experiment [1], the Monocyte adhesion entry is given as “unaffected” and the “Level of Transmigration Blockage (%)” value is 98%. In addition, the inhibition at 30 µM in experiment [1] (Homo sapiens, HUVEC) was greater than 90%.

As to `O=C1NC(=O)C(=Cc2ccccc2OCc2cccc(C(=O)O)c2)C(=O)N1` [Formula 6, 3-((2-((2,4,6-trioxo-tetrahydropyrimidin-5(6H)-ylidene)methyl)phenoxy)methyl)benzoic acid], the “Level of Transmigration Blockage (%)” value in experiment [1] came to 78%.

The IC50 is the concentration at which inhibition is half-maximal. A low value points to greater potency. With `O=C1NC(=O)C(=Cc2c3ccccc3cc3ccccc23)C(=O)N1` [Formula 10, 5-(anthracen-9-ylmethylene)pyrimidine-2,4,6(1H,3H,5H)-trione], in experiment [1], the Monocyte adhesion entry is “unaffected” and the “Level of Transmigration Blockage (%)” value is listed as 92%. Moreover, the inhibition at 30 µM in experiment [1] (Homo sapiens, HUVEC) is greater than 90%. Further, half-maximal inhibition in experiment [1] (Homo sapiens, HUVEC, flow 0.05 Pa, n=3) (IC50) required 300 nM. Besides, in experiment [1] (Homo sapiens, HUVEC, monocyte transmigration inhibition, read-out: maximal efficacy), the Emax is 40%. In addition, the “concentration below which not active on monocyte transmigration” value in experiment [1] (dose response, 100 μM to 3 nM) was “below 30 nM”. Further, in experiment [1] (dose response, concentrations higher than 30 nM), the monocyte transmigration entry is “partial effect”. The monocyte transmigration result in experiment [1] (dose response, high concentrations (100 μM)) was “Total blocking”. Further, the “time of the maximal effect” value in experiment [1] (monocyte transmigration, read at 10, 15, 20 and 25 minutes) was found to be 25 min.
